# Paper PMC9173702 (ACS chemical biology, 2022)
# How the values were obtained:
# mice = test: In vivo glucose tolerance test (GTT); design: species or system mouse; settings: male B6 mice, 16 h fast, 10 nmol/kg IP peptide, then 2 g/kg IP glucose; blood glucose 0-120 min; n = 8; one-way ANOVA, Dunnett's post-test
# Experimental: Given the promising activation and stability data, we next tested our peptides in vivo using a standard glucose tolerance test (GTT). More specifically, following a 16h fast, mice were injected intraperitoneally (IP) with 10 nmol/kg peptide followed by 2 g/kg of glucose.
# In Vivo GTT Test: Male B6 mice at 10−12 weeks of age were housed (8 mice/cage) at a constant RT of 24 °C on a normal day-light cycle and provided a standard diet ad libitum. After 1 week of acclimatization, B6 mice (n = 8 per treatment arm) were fasted for 16 h overnight, and the following morning baseline blood glucose levels were measured (OneTouch), followed by intraperitoneal (IP) injection of vehicle (saline) or the indicated peptide (10 nmol/kg). Thirty minutes later, the mice were treated with a bolus IP injection of glucose (2 g/kg, 20% aqueous solution), followed by serial blood glucose monitoring at 0, 15, 30, 60, and 120 min. Samples for the measurement of blood glucose were obtained from the saphenous vein and collected into heparinized capillary tubes. All animal experiments were approved by and performed in accordance with the guidelines and regulations set forth by the Institutional Animal Care and Use Committee of the Dana-Farber Cancer Institute.
# [1] = Solubility of stock solution for CD spectroscopy; format: physicochemical; settings: 5 mM stock in 10% acetonitrile
# [2] = Human serum stability assay (RP-HPLC); settings: 50% (v/v) human serum, 50 μM peptide, 37 °C, up to 48 h, n = 3
# Experimental: Human Serum Stability Assay: Stock solutions of the peptides (10 mM in DMSO) and reconstituted normal human serum (Thermo Scientific) were pre-equilibrated to 37 °C for 15 minutes in separate tubes. For each replicate, peptides and serum were combined to a final concentration of 50 μM and 50% (v/v) respectively, final volume of 150 μL. The reaction tubes were then incubated at 37 °C with 300 rpm shaking in an Eppendorf ThermoMixer. At each time point, 20 μL of the reaction was taken from each replicate and diluted with four-fold excess of cold acetone. The serum proteins were allowed to precipitate for 15 minutes at -20 °C and were removed by centrifugation at 14,000 g, 4 °C for 10 minutes. The supernatant was transferred to a new tube, diluted with the same volume of water, and were stored at -20 °C until HPLC analysis. Chromatographic separations were performed on a C18 reversed phase analytical column (Higgins Analytical, 150x4.6 mm, 5 μm pore size) using a 30-50% B linear gradient over 30 minutes. Solvent A consisted of 0.1% (v/v) TFA in water, and solvent B contained 90% acetonitrile, 0.1% TFA in water.
# [3] = clinically marketed as Forteo; cited from earlier work
molecule,measurement,setting,value
CCCCCCCCCCCCCCCCCCOCCOCCOCCOCCOCCC(=O)N[C@@H](CO)C(=O)NCCCC[C@H](NC(=O)[C@H](C)NC(=O)[C@H](C)NC(=O)[C@H](CCC(N)=O)NC(=O)CNC(=O)[C@H](CCC(=O)O)NC(=O)[C@H](CC(C)C)NC(=O)[C@H](Cc1ccc(O)cc1)NC(=O)[C@H](CO)NC(=O)[C@H](CO)NC(=O)[C@@H](NC(=O)[C@H](CC(=O)O)NC(=O)[C@H](CO)NC(=O)[C@@H](NC(=O)[C@H](Cc1ccccc1)NC(=O)[C@@H](NC(=O)CNC(=O)[C@H](CCC(=O)O)NC(=O)C(C)(C)NC(=O)[C@@H](N)Cc1c[nH]cn1)[C@@H](C)O)[C@@H](C)O)C(C)C)C(=O)N[C@@H](CCC(=O)O)C(=O)N[C@@H](Cc1ccccc1)C(=O)N[C@H](C(=O)N[C@@H](C)C(=O)N[C@@H](Cc1c[nH]c2ccccc12)C(=O)N[C@@H](CC(C)C)C(=O)N[C@H](C(=O)N[C@@H](CCCCN)C(=O)NCC(=O)N[C@@H](CCCNC(=N)N)C(=O)NCC(=O)O)C(C)C)[C@@H](C)CC [G1],glycemic control in acute GTT (blood glucose AUC) compared to unmodified GLP-1,mice,statistically significant glycemic control
CC[C@H](C)[C@H](NC(=O)[C@H](Cc1ccccc1)NC(=O)[C@H](CCC(=O)O)NC(=O)[C@H](CCCCNC(=O)COCCOCCNC(=O)COCCOCCNC(=O)CC[C@H](NC(=O)CCCCCCCCCCCCCCCCC(=O)O)C(=O)O)NC(=O)[C@H](C)NC(=O)[C@H](C)NC(=O)[C@H](CCC(N)=O)NC(=O)CNC(=O)[C@H](CCC(=O)O)NC(=O)[C@H](CC(C)C)NC(=O)[C@H](Cc1ccc(O)cc1)NC(=O)[C@H](CO)NC(=O)[C@H](CO)NC(=O)[C@@H](NC(=O)[C@H](CC(=O)O)NC(=O)[C@H](CO)NC(=O)[C@@H](NC(=O)[C@H](Cc1ccccc1)NC(=O)[C@@H](NC(=O)CNC(=O)[C@H](CCC(=O)O)NC(=O)C(C)(C)NC(=O)[C@@H](N)Cc1cnc[nH]1)[C@@H](C)O)[C@@H](C)O)C(C)C)C(=O)N[C@@H](C)C(=O)N[C@@H](Cc1c[nH]c2ccccc12)C(=O)N[C@@H](CC(C)C)C(=O)N[C@H](C(=O)N[C@@H](CCCNC(=N)N)C(=O)NCC(=O)N[C@@H](CCCNC(=N)N)C(=O)NCC(=O)O)C(C)C [Semaglutide],solubility as stock,[1],not soluble
same,stability in human serum (in words),[2],almost no sign of degradation up to 48 h
PTH(1–34): clinically marketed by Eli Lilly as Forteo,half-life in the blood,[3],~ 5 minutes
